From patent US20200237871A1, “METHODS FOR MITIGATING LIVER INJURY AND PROMOTING LIVER HYPERTROPHY, REGENERATION AND CELL ENGRAFTMENT IN CONJUNCTION WITH RADIATION AND/OR RADIOMIMETIC TREATMENTS” (Janssen Pharmaceutica NV, priority 2019, published 2020)

Experiments:
DPPIV−/− knockout mice = experiment: Relative change of dissected liver lobe size after hepatic irradiation (Example 2); type: in vivo, mouse
Experimental: 8-12-week-old male and female Di-peptyl peptidase IV (DPPIV) −/− knockout mice and 8-12-week-old male and female C57Bl6 mice were used in this study. Animals were weighed in the beginning of the experiment and before tissue collection. All animals were housed in the Institute for Animal Studies at Albert Einstein College of medicine and fed regular rodent chow. All experiments were performed to according to protocols approved by Institutional Animal Care and Use Committee at Albert Einstein College of Medicine. Animals were made cirrhotic using CCl4 administration (intraperitoneal [IP] injections twice a week for at least 11 weeks).
Image-guided external beam irradiation was performed using a small animal radiation research platform (SARRP, Xstrahl Inc., Suwanee, Ga.). Mice were given gastrografin contrast through gavage to improve visualization of the gastrointestinal (GI) tract. After approximately 2 minutes, mice were positioned on a tubular couch and anesthetized with ˜2% Isofluorane (Isothesia, USP) in 2 L/min pure oxygen. A cone-beam computed tomography (CBCT) scan was acquired and a treatment plan irradiating the median lobe and right lobe was generated using the MuriPlan software. […]

cirrhotic mice = experiment: Lobe weight ratio / hypertrophy of non-irradiated lobe in cirrhotic mice after HIR (Example 5); type: in vivo, mouse
Experimental: Male C57BL/6 DPPIV knockout male mice (10-14 weeks) were injected intraperitoneally with carbon tetrachloride (CCl4) twice a week for a minimum of 12 weeks until a maximum of when 5 out of 30 mice perish from the CCl4 injection. Immediately after, the animals were randomly distributed into the experimental groups.
Image-guided external beam irradiation was performed using a small animal radiation research platform (SARRP, Xstrahl Inc., Suwanee, Ga.). Mice were given gastrografin contrast through gavage to improve visualization of the gastrointestinal (GI) tract. […]
The methods were identical to Experiment 4 as described above with the exception that the CCl4 dose was increased to 20% in olive oil over 12 weeks. To evaluate the effect of RWJ-800088+Liver Sinusoidal Endothelial Cells (LSEC), RWJ-800088+Plerixafor (a selective inhibitor of CXCR4 administered pre- and post-irradiation) on radiation induced liver disease as measured by SPECT-CT in cirrhotic mice after single hepatic irradiation (HIR) at 50 Gy. […]
The dosing solution of RWJ-800088 was prepared as described in Experiment 4. […] The number of viral particles and infectious units' ratio was determined by infecting 293 cells at various dilutions, followed by immunocytochemical staining for adenoviral hexons. The infectious titer was calculated from the number of plaques formed per 1,000 viral particles. […]

Substance: methoxypolyethyleneglycol20000-propionyl-L-Isoleucyl-L-Glutamyl-Glycyl-L-Prolyl-L-Threonyl-L-Leucyl-L-Arginyl-L-Glutaminyl-L-2-Naphthylalanyl-L-Leucyl-L-Alanyl-L-Alanyl-L-Arginyl-Sarcosyl-Ne-(methoxypolyethyleneglycol20000-propionyl-L-Isoleucyl-L-Glutamyl-Glycyl-L-Prolyl-L-Threonyl-L-Leucyl-L-Arginyl-L-Glutaminyl-L-2-Naphthyl alanyl-L-Leucyl-L-Alanyl-L-Alanyl-L-Arginyl-Sarcosyl-)-Lysinamide [RWJ-800088]
- volume of the non-irradiated left lobe (DPPIV−/− knockout mice; 2-months post-HIR, HIR then LSECs+/−RWJ-800088 at 24-hours post-HIR): trend for an increase
- size of the irradiated lobes (median and right) (DPPIV−/− knockout mice; RWJ-800088 and HIR only): trend for a reduction
- Average Ratio of Right Lobe to Left Lobe Weight (cirrhotic mice; HIR + LSEC transplant (48 hours after HIR) + drug, 4 months post-HIR): 1.35
- hypertrophy of the non-irradiated lobe (cirrhotic mice; cirrhotic mice, 50 Gy HIR, RWJ-800088 with LSEC transplants): increase in hypertrophy
